# Experimental data taken from US20250011289A1, “1H-BENZO[B]AZEPIN-2(3H)-ONE COMPOUNDS, COMPOSITIONS AND METHODS OF TREATING CANCER” (Chengdu Anticancer Bioscience, Ltd., priority 2021, published 2025).
# Where two headings read alike, the source gives them in different places.
# Experiments:
# [1] = system: RPE-Neo or RPE-MYC or RPE-MYC expressing an EGFP-Histone 2B fusion protein; experiment: Phenotypic screening assay (arrest in mitosis or change in DNA content, IN-Cell Analyzer); type: cell-based; conditions: compounds at 20 nM to 20 μM, analysed 24, 48 or 72 hours after initiation of treatment
# Experimental: (§1) Screening was conducted as described before (Li et al. 2019). Briefly, RPE-Neo or RPE-MYC or RPE-MYC expressing an EGFP-Histone 2B fusion protein were passaged as batches of 96-well plates, 18-24 hours before exposure to the chemical compounds of the present disclosure at concentrations from 20 nM to 20 μM. At 24, 48 or 72 hours after initiation of treatment, cells were analyzed for either an arrest in mitosis or a change in DNA content by GE 1N-Cell Analyzer 2000. MTT assays of cellular proliferation were performed as previously described (Li et al. 2019).
# (§2) As set forth in table 2 below, an values of greater than or equal to 1 nM and less than or equal to 1.0 μM is marked “A”; a value greater than 1.00 μM and less than or equal to 10.0 μM is marked “B”; a value greater than 10.0 μM and less than or equal to 30.0 μM is marked “C”; and a value greater than 30.0 μM and less than 1000 μM is marked “D.”
# [2] = system: RPE-Neo or RPE-MYC cells; experiment: MTT assay of cellular proliferation; type: cell-based; conditions: compounds at 20 nM to 20 μM; read-out: Min. Effective conc. for Proliferative arrest (>50%)
# Experimental: Human cancer cell lines were obtained from ATCC and cultured in DMEM (Gibco, Cleveland. TN, USA) supplemented with 5% fetal bovine serum (Gibco), penicillin (100 U/mL)-streptomycin (100 μg/mL) (Gibco, Cat. No. 15140-122), 2 mM L-glutamine (Gibco, 200 mM solution, Cat. No. 25030081), and 1 mM sodium pyruvate (Gibco, 100 mM solution, Cat. No. 11360070) at 37° C. in a humidified incubator that was maintained at 5% CO2.
# as §1, §2
# [3] = read-out: Min. Effective conc. for Along with Cell Death
# [4] = read-out: Min. Effective conc. for Mitotic Arrest (>5%)
# [5] = read-out: Min. Effective conc. for Polyploidy (≥5%)
Compound,"minimal effective concentration [1, 3]","minimal effective concentration [1, 4]","minimal effective concentration [1, 5]",minimal effective concentration [2]
"Cc1cc(F)c(CN2C(=O)CC(c3nnc(C4CC4)o3)=C(Br)c3ccccc32)cc1F [Compound 20-28, 5-bromo-4-(5-cyclopropyl-1,3,4-oxadiazol-2-yl)-1-(2,5-difluoro-4-methylbenzyl)-1,3-dihydro-2H-benzo[b]azepin-2-one]",0.001 to 1 µM,0.001 to 1 µM,0.001 to 1 µM,0.001 to 1 µM
Cc1ccc(CN2C(=O)CC(c3nnc(C4CC4)o3)=C(C3CC3)c3ccccc32)cc1F [Compound 20-29],1 to 10 µM,1 to 10 µM,1 to 10 µM,1 to 10 µM
CC1=C(c2nnc(C3CC3)o2)CC(=O)N(Cc2ccc(C)c(F)c2)c2ccccc21 [Compound 20-30],0.001 to 1 µM,0.001 to 1 µM,0.001 to 1 µM,0.001 to 1 µM
"C#CC1=C(c2nnc(C3CC3)o2)CC(=O)N(Cc2ccc(C)c(F)c2)c2ccccc21 [Compound 20-32, 4-(5-cyclopropyl-1,3,4-oxadiazol-2-yl)-5-ethynyl-1-(3-fluoro-4-methylbenzyl)-1,3-dihydro-2H-benzo[b]azepin-2-one]",0.001 to 1 µM,0.001 to 1 µM,0.001 to 1 µM,0.001 to 1 µM
"Cc1ccc(CN2C(=O)CC(c3nc[nH]n3)=C(Br)c3ccccc32)cc1F [Compound 22-1, 5-bromo-1-(3-fluoro-4-methylbenzyl)-4-(1H-1,2,4-triazol-3-yl)-1,3-dihydro-2H-benzo[b]azepin-2-one]",1 to 10 µM,1 to 10 µM,1 to 10 µM,1 to 10 µM
"Cc1cnc(C2=C(Br)c3ccccc3N(Cc3ccc(C)c(F)c3)C(=O)C2)o1 [Compound 23-1, 5-bromo-1-(3-fluoro-4-methylbenzyl)-4-(5-methyloxazol-2-yl)-1,3-dihydro-2H-benzo[b]azepin-2-one]",0.001 to 1 µM,0.001 to 1 µM,0.001 to 1 µM,0.001 to 1 µM
"Cc1ccc(CN2C(=S)CC(c3nnc(C4CC4)o3)=C(Br)c3ccccc32)cc1F [Compound 24-1, 5-bromo-4-(5-cyclopropyl-1,3,4-oxadiazol-2-yl)-1-(3-fluoro-4-methylbenzyl)-1,3-dihydro-2H-benzo[b]azepine-2-thione]",0.001 to 1 µM,0.001 to 1 µM,0.001 to 1 µM,0.001 to 1 µM
"CCOCC1=C(Cl)c2ccccc2N(Cc2ccc(C)c(F)c2)C(=O)C1 [Compound 24-2, 5-chloro-4-(ethoxymethyl)-1-(3-fluoro-4-methylbenzyl)-1,3-dihydro-2H-benzo[b]azepin-2-one]",0.001 to 1 µM,0.001 to 1 µM,0.001 to 1 µM,0.001 to 1 µM
"COC1=C(c2cnco2)CC(=O)N(Cc2ccc(C)c(F)c2)c2ccccc21 [Compound 26-1, 1-(3-fluoro-4-methylbenzyl)-5-methoxy-4-(oxazol-5-yl)-1,3-dihydro-2H-benzo[b]azepin-2-one]",1 to 10 µM,1 to 10 µM,1 to 10 µM,1 to 10 µM
"COC1=C(CO)CC(=O)N(Cc2ccc(C)c(F)c2)c2ccccc21 [Compound 27-1, 1-(3-fluoro-4-methylbenzyl)-4-(hydroxymethyl)-5-methoxy-1,3-dihydro-2H-benzo[b]azepin-2-one]",30 to 1000 µM,30 to 1000 µM,30 to 1000 µM,30 to 1000 µM
"COCC1=C(OC)c2ccccc2N(Cc2ccc(C)c(F)c2)C(=O)C1 [Compound 28-1, 1-(3-fluoro-4-methylbenzyl)-5-methoxy-4-(methoxymethyl)-1,3-dihydro-2H-benzo[b]azepin-2-one]",1 to 10 µM,1 to 10 µM,1 to 10 µM,1 to 10 µM
"COc1ccc(C(=O)N2CCC(c3nnc(C4CC4)o3)=C(Br)c3ccccc32)cc1F [Compound 34-2, (5-bromo-4-(5-cyclopropyl-1,3,4-oxadiazol-2-yl)-2,3-dihydro-1H-benzo[b]azepin-1-yl)(3-fluoro-4-methoxyphenyl)methanone]",0.001 to 1 µM,0.001 to 1 µM,0.001 to 1 µM,0.001 to 1 µM
"COc1ccc(S(=O)(=O)N2CCC(c3nnc(C4CC4)o3)=C(Br)c3ccccc32)cc1F [Compound 34-3, 2-(5-bromo-1-((3-fluoro-4-methoxyphenyl)sulfonyl)-2,3-dihydro-1H-benzo[b]azepin-4-yl)-5-cyclopropyl-1,3,4-oxadiazole]",1 to 10 µM,1 to 10 µM,1 to 10 µM,1 to 10 µM
"Cc1ccc(S(=O)(=O)N2CCC(c3nnc(C4CC4)o3)=C(Br)c3ccccc32)cc1 [Compound 34-4, 2-(5-bromo-1-tosyl-2,3-dihydro-1H-benzo[b]azepin-4-yl)-5-cyclopropyl-1,3,4-oxadiazole]",1 to 10 µM,1 to 10 µM,1 to 10 µM,1 to 10 µM
Cc1ccc(C(C)N2C(=O)CC(c3nnc(C4CC4)o3)=C(Br)c3ccccc32)cc1F (centres unmarked) [Compound 40],1 to 10 µM,1 to 10 µM,1 to 10 µM,1 to 10 µM
"COCC1=C(Br)c2ccccc2N(Cc2ccc(C)c(F)c2)C(=O)C1 [Compound 42, 5-bromo-1-(3-fluoro-4-methylbenzyl)-4-(methoxymethyl)-1,3-dihydro-2H-benzo[b]azepin-2-one]",0.001 to 1 µM,0.001 to 1 µM,0.001 to 1 µM,0.001 to 1 µM
"Cc1ccc(CN2C(=O)CC(COC3CCOC3)=C(Br)c3ccccc32)cc1F (centres unmarked) [Compound 44-1, 5-bromo-1-(3-fluoro-4-methylbenzyl)-4-(((tetrahydrofuran-3-yl)oxy)methyl)-1,3-dihydro-2H-benzo[b]azepin-2-one]",0.001 to 1 µM,0.001 to 1 µM,0.001 to 1 µM,0.001 to 1 µM
"Cc1ccc(CN2C(=O)CC(COC3CCOCC3)=C(Br)c3ccccc32)cc1F [Compound 44-2, 5-bromo-1-(3-fluoro-4-methylbenzyl)-4-(((tetrahydro-2H-pyran-4-yl)oxy)methyl)-1,3-dihydro-2H-benzo[b]azepin-2-one]",1 to 10 µM,1 to 10 µM,1 to 10 µM,1 to 10 µM
Cc1ccc(CN2C(=O)CC(COCC3CCOC3)=C(Br)c3ccccc32)cc1F (centres unmarked) [Compound 44-3],0.001 to 1 µM,1 to 10 µM,0.001 to 1 µM,0.001 to 1 µM
"Cc1ccc(CN2C(=O)CC(COCC3CCCO3)=C(Br)c3ccccc32)cc1F (centres unmarked) [Compound 44-4, 5-bromo-1-(3-fluoro-4-methylbenzyl)-4-(((tetrahydrofuran-2-yl)methoxy)methyl)-1,3-dihydro-2H-benzo[b]azepin-2-one]",1 to 10 µM,1 to 10 µM,1 to 10 µM,1 to 10 µM
